Experimental data: patent US7858322B2, “Method of determining inhibition of binding to TRPM7 protein” (NoNo, Inc., priority 2003, dated 2010)
Residues, ends and D or L forms follow the SMILES beside them. *: point of attachment. Biotin = O=C1N[C@H]2[C@H](CS[C@H]2CCCCC(=O)*)N1

What was measured:
INADL d3 [1] = target: T1, INADL d3 (Homo sapiens, UniProt Q8NI35); assay: G assays, titrations or binding assays of peptides; details: peptide demonstrated to bind INADL d3 in G assays
T1 construct: made in house; host or cells: E. coli (DH5α, BL21 or JM109)
T1 sequence (Q8NI35 with tags, fused parts or gaps): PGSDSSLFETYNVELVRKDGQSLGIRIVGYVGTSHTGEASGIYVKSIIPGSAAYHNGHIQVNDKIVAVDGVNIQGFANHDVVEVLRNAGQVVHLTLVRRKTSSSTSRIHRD
Protocol: (§8) In one aspect, the invention provides an assay in which a GST/PDZ fusion protein is immobilized on a surface (G assay). […] In a preferred embodiment, the assay is carried out as follows:
(§9) (1) A PDZ-domain polypeptide is bound to a surface, e.g. a protein binding surface. In a preferred embodiment, a GST/PDZ fusion protein containing one or more PDZ domains is bound to a polystyrene 96-well plate. […] In one embodiment, the GST/PDZ fusion protein is bound via an anti-GST antibody that is coated onto the 96-well plate. Adequate binding to the plate can be achieved when: • a. 100 μl per well of 5 μg/ml goat anti-GST polyclonal antibody (Pierce) in PBS is added to a polystyrene 96-well plate (e.g., Nunc Polysorp) at 4° C. for 12 hours. • b. The plate is blocked by addition of 200 μl per well of PBS/BSA for 2 hours at 4° C. • c. The plate is washed 3 times with PBS. • d. 50 μl per well of 5 μg/ml GST/PDZ fusion protein) or, as a negative control, GST polypeptide alone (i.e. not a fusion protein) in PBS/BSA is added to the plate for 2 hours at 4° C. • e. the plate is again washed 3 times with PBS.
(§10) (2) Biotinylated PL peptides are allowed to react with the surface by addition of 50 μl per well of 20 μM solution of the biotinylated peptide in PBS/BSA for 10 minutes at 4° C., followed by an additional 20 minute incubation at 25° C. The plate is washed 3 times with ice cold PBS.
(§11) (3) The binding of the biotinylated peptide to the GST/PDZ fusion protein surface can be detected using a variety of methods and detectors known to one of skill in the art. In one embodiment, 100 μl per well of 0.5 μg/ml streptavidin-horseradish peroxidase (HRP) conjugate dissolved in BSA/PBS is added and allowed to react for 20 minutes at 4° C. The plate is then washed 5 times with 50 mM Tris pH 8.0 containing 0.2% Tween 20, and developed by addition of 100 μl per well of HRP-substrate solution (TMB, Dako) for 20 minutes at room temperature (RT). The reaction of the HRP and its substrate is terminated by addition of 100 μl per well of 1 M sulfuric acid, and the optical density (O.D.) of each well of the plate is read at 450 um.
(§12) (4) Specific binding of a PL peptide and a PDZ domain polypeptide is determined by comparing the signal from the well(s) in which the PL peptide and PDZ domain polypeptide are combined, with the background signal(s). […] Typically a specific or selective reaction will be at least twice background signal, more typically more than 5 times background, and most typically 10 or more times the background signal. […] Correspondingly, a statistical test (e.g. a T-test) comparing repeated measurements of the signal with repeated measurements of the background will result in a p-value <0.05, more typically a p-value <0.01, and most typically a p-value <0.001 or less. As noted, in an embodiment of the G assay, the signal from binding of a given PL peptide to immobilized (surface bound) GST polypeptide alone is one suitable negative control (sometimes referred to as B1). Because all measurement are done in multiples (i.e. at least duplicate) the arithmetic mean (or, equivalently, average.) of several measurements is used in determining the binding, and the standard error of the mean is used in determining the probable error in the measurement of the binding. The standard error of the mean of N measurements equals the square root of the following: the sum of the squares of the difference between each measurement and the mean, divided by the product of (N) and (N−1). Thus, in one embodiment, specific binding of the PDZ protein to the platebound peptide is determined by comparing the mean signal (“mean S”) and standard error of the signal (“SE”) for a particular PL-PDZ combination with the mean B1.

INADL d3 [2] = target: T1, INADL d3; assay: G3 assay, binding of biotinylated peptide to GST-PDZ fusion; details: G3 titration
Protocol: (§1) The G3 assay is identical to the G0 assay with the following exceptions. The peptides are typically present at 0.1 μM rather than 20 μM. The peptides are also pre-incubated with the HRP-streptavidin prior to adding to the assay plate. In the G0 assay, free peptide is incubated with the PDZ proteins prior to the addition of the HRP-streptavidin. Thus, for the G0 assay one can lose signal if the bound peptide dissociates from the PDZ protein prior to the addition of the HRP-streptavidin. In the G3 modified assay the HRP-streptavidin/peptide complex is added to the plate in one step, thus increasing the likelihood that all the bound peptide will be bound to HRP-streptavidin. The G3 modified assay increases the chance of observing weak interaactions.
(§2) Reagents and Supplies • Nunc MaxiSorp 96 well Immuno-plate, Nunc • PBS pH 7.4 (phosphate buffered saline, 8 g NaCl, 0.29 g KCl, 1.44 g Na2HPO4, 0.24 g KH2PO4, add H2O to 1 liter and pH 7.4; 0.2 μm filter) • Assay Buffer: 2% BSA in PBS (20 g of bovine serum albumin per liter PBS, fraction V, ICN Biomedicals, cat#IC15142983 • Goat anti-GST polyclonal Ab, stock 5 mg/ml, stored at 4° C., Amersham Pharmacia cat#27-4577-01 • Dilute 1:1000 in PBS, final concentration 5 μg/ml. • HRP-Streptavidin, 2.5 mg/2 ml stock stored at 4° C., Zymed cat#43-4323, dilute 1:2000 into Assay buffer, final concentration of 0.5 μg/ml • Wash Buffer, PBS • Biotinylated peptides (HPLC purified, stock solution stored in −20° C. freezer) • GST-PRISM proteins (stock stored at −80° C., after 1st thaw store in −10° C. freezer) • TMB (3,3′,5,5′, teramethylbensidine), tablets, Sigma cat.#T5525 • Per plate, dissolve 1 tablet in 1 ml DMSO, add 9 ml Citrate/Phosphate buffer pH 5.4 and 2 μL H2O2 • 0.18M H2SO4, Sigma cat.#S 1526 • 12-w multichannel pipettor & tips • 50 ml reagent reservoirs, Costar#4870 • 50, 15 ml polypropylene conical tubes • Costar Transtar 96 Costar #7605 • Transtar 96 Cartridge Costar #7610 • Molecular Devices microplate reader (450 & 650 nm filters) with SoftMax Pro software • When using reagents stored at or 4° C. or −20° C., remove & keep on ice
(§3) Protocol • 1. Coat plate with 100 μl of 5 μg/ml anti-GST, overnight at 4° C. • 2. Dump contents of plate & out tap dry on paper towels • 3. Block with 200 μl Assay Buffer for 2 hrs at room temperature • 4. Prepare proteins at 5 μg/ml in Assay Buffer • 5. Wash 3× with cold PBS (4° C.), avoiding letting the plates dry out • 6. Add proteins at 50 μl per well, incubate 1 to 2 hrs at 4° C. • 7. Prepare peptides to desired concentration in Assay Buffer • 8. Wash 3× with cold PBS (4° C.), avoiding letting the plates dry out • 9. Add HRP-Streptavidin/peptide complex [prepared by incubating for 20 minutes at room temperature HRP-Streptavidin (1:2000) with the desired biotin-peptide concentration for 20 minutes at room temperature] at 50 μl per well on ice • 10. Place at room temperature for exactly 30 minutes • 11. Promptly wash 5× with PBS at room temperature • 12. Add 100 μl/well TMB substrate (write time on plate) • 13. Incubate in dark at room temperature for a maximum of 30 minutes • 14. Read plate at 25 minutes (650 nm), optional • 15. Stop reaction with 100 μl of 0.18 M H2SO4, 30 minutes after adding TMB Take last reading at 450 nm soon after stopping reaction
(§4) The G3 assay was performed using 0.1 μM peptide representing 11 amino acids of Tat fused to the final 9 amino acids of TRPM7 ([…]; SEQ ID NO:258).
(§5) The G3 assay was performed on a subset of the PDZ domains as in Example II except that the concentration of peptide was 0.002 μM, […], 0.1 μM, 0.2 μM, 1 μM, and 2 μM.
(§6) to calculate the EC50 for the binding of the peptides to the PDZ domains.
(§7) FIGS. 10A and 10B show graphs of the titrations for the Peptide #1829 with ZO-1 d2 and for the Peptide #1839 with INADL d3.

ZO-1 d2 [3] = target: T2, ZO-1 d2 (Homo sapiens, UniProt Q07157, DEL264-264); assay: as above; details: G3 titration
T2 construct: made in house; host or cells: E. coli (DH5α, BL21 or JM109)
T2 sequence (Q07157 with tags, fused parts or gaps DEL264-264): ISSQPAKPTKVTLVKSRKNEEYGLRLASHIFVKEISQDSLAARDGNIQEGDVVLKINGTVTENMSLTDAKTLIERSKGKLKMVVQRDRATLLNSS
Protocol: as §1, §2, §3, §4, §5, §6, §7

RIM2 d1 = target: T3, RIM2 d1 (Homo sapiens, UniProt Q9UQ26); assay: G assays, titrations or binding assays of peptides; details: peptide demonstrated to bind RIM2 d1 in G assays
T3 construct: made in house; host or cells: E. coli (DH5α, BL21 or JM109)
T3 sequence (Q9UQ26 632-757): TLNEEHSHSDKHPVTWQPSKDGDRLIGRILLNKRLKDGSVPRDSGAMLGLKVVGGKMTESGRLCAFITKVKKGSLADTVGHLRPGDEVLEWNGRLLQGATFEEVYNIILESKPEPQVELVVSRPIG
Protocol: as §8, §9, §10, §11, §12

ZO-1 d2 [4] = target: T2, ZO-1 d2; assay: G assays, titrations or binding assays of peptides; details: peptide demonstrated to bind ZO-1 d2 in G assays
Protocol: as §8, §9, §10, §11, §12

[5] = test system: cultured cortical neurons; assay: Oxygen glucose deprivation (OGD) neuronal cell death; type: cell-based; details: FIG. 7
Protocol: The fraction of dead cells was determining by dividing the number of neurons expressing GFP which became stained with propidium iodide 20 h after OGD by the number of neurons expressing GFP at the beginning of the experiment. Data for each culture was obtained from counting cells in 3 high power microscope fields per experiment.

cultured neurons = assay: Neuronal survival 20 h after 1 h NMDA challenge; type: cell-based; details: peptide applied immediately after the NMDA challenge; FIG. 14
Protocol: The sequence of Tat-9cTRPM7 is: [[…] or [[…]-[…]] (SEQ ID NO:258), whereby the first 11 residues correspond to the cell membrane transduction domain of the human immunodeficiency virus type 1 (HIV-1) Tat protein and the last 9 residues correspond to the last 9 amino acids of the C-terminus of human TRPM7 (accession Q96QT4). […] (A) Neuronal survival at 20 h in the indicated concentrations of Tat-9cTRPM7 in the absence of excitotoxic challenge. (B) Neuronal survival 20 h after challenging the cultures for 1 h with the indicated concentration of NMDA. Tat-9cTRPM7 was applied immediately after the NMDA challenge.
The sequence of Tat-9cTRPM7 is: [[…]-[…]; SEQ ID NO:258], whereby the first 11 residues correspond to the cell-membrane transduction domain of the human immunodeficiency virus type 1 (HIV-1) Tat protein and the last 9 residues correspond to the last 9 amino acids of the C-terminus of human TRPM7 (accession Q96QT4). (A) Neuronal survival at 20 h in the indicated concentrations of Tat-9cTRPM7 in the absence of excitotoxic challenge. (B) Neuronal survival 20 h after challenging the cultures for 1 h with the indicated concentration of NMDA. Tat-9cTRPM7 was applied immediately after the NMDA challenge.

| Compound | POZ domain bound (INADL d3 [1]) | ODmax (450 nm) (INADL d3 [2]) | ODmax (450 nm) (ZO-1 d2 [3]) | POZ domain bound (RIM2 d1) | POZ domain bound (ZO-1 d2 [4]) | Survival of neurons in prolonged OGD [5] | Neuronal survival 20 h after challenging the cultures for 1 h with NMDA (cultured neurons) |
| --- | --- | --- | --- | --- | --- | --- | --- |
| CC[C@H](C)[C@H](NC(=O)[C@H](CCC(N)=O)NC(=O)[C@H](Cc1ccc(O)cc1)NC(=O)[C@H](CCCCN)NC(=O)[C@H](CCCNC(=N)N)NC(=O)[C@H](CC(=O)O)NC(=O)[C@@H](NC(=O)[C@H](CCCNC(=N)N)NC(=O)[C@H](CO)NC(=O)[C@H](CCCNC(=N)N)NC(=O)[C@H](CCCNC(=N)N)NC(=O)[C@H](CCCNC(=N)N)NC(=O)[C@H](CCC(N)=O)NC(=O)[C@H](CCCNC(=N)N)NC(=O)[C@H](CCCNC(=N)N)NC(=O)[C@H](CCCCN)NC(=O)[C@H](CCCCN)NC(=O)[C@H](CCCNC(=N)N)NC(=O)CNC(=O)[C@H](Cc1ccc(O)cc1)NC(=O)CCCC[C@@H]1SC[C@@H]2NC(=O)N[C@@H]21)[C@@H](C)O)C(=O)O [Peptide 1839] (Biotin-YGRKKRRQRRRSRTDRKYQI-OH; C-terminus assumed) | INADL D3 | 1.60 | 2.50 | RIM2 D1 |  |  |  |
| CC[C@H](C)[C@H](NC(=O)[C@@H](NC(=O)[C@H](CCCNC(=N)N)NC(=O)[C@H](CC(=O)O)NC(=O)[C@H](CO)NC(=O)[C@H](CCCNC(=N)N)NC(=O)[C@H](C)NC(=O)[C@H](CCCNC(=N)N)NC(=O)[C@H](CCCNC(=N)N)NC(=O)[C@H](CCCNC(=N)N)NC(=O)[C@H](CCC(N)=O)NC(=O)[C@H](CCCNC(=N)N)NC(=O)[C@H](CCCNC(=N)N)NC(=O)[C@H](CCCCN)NC(=O)[C@H](CCCCN)NC(=O)[C@H](CCCNC(=N)N)NC(=O)CNC(=O)[C@H](Cc1ccc(O)cc1)NC(=O)CCCC[C@@H]1SC[C@@H]2NC(=O)N[C@@H]21)[C@@H](C)O)C(=O)N[C@@H](Cc1c[nH]c2ccccc12)C(=O)N[C@@H](C)C(=O)O [Peptide 1829] (Biotin-YGRKKRRQRRRARSDRTIWA-OH; C-terminus assumed) | INADL D3 | 1.40 | 2.90 | RIM2 D1 | ZO-1 D2 |  |  |
| C[C@H](NC(=O)[C@H](Cc1c[nH]c2ccccc12)NC(=O)[C@H](Cc1ccc(O)cc1)NC(=O)[C@H](CCCCN)NC(=O)[C@H](CCCNC(=N)N)NC(=O)[C@H](CC(=O)O)NC(=O)[C@@H](NC(=O)[C@H](CCCNC(=N)N)NC(=O)[C@H](CO)NC(=O)[C@H](CCCNC(=N)N)NC(=O)[C@H](CCCNC(=N)N)NC(=O)[C@H](CCCNC(=N)N)NC(=O)[C@H](CCC(N)=O)NC(=O)[C@H](CCCNC(=N)N)NC(=O)[C@H](CCCNC(=N)N)NC(=O)[C@H](CCCCN)NC(=O)[C@H](CCCCN)NC(=O)[C@H](CCCNC(=N)N)NC(=O)CNC(=O)[C@H](Cc1ccc(O)cc1)NC(=O)CCCC[C@@H]1SC[C@@H]2NC(=O)N[C@@H]21)[C@@H](C)O)C(=O)O [Peptide 1832] (Biotin-YGRKKRRQRRRSRTDRKYWA-OH; C-terminus assumed) | INADL D3 | 0.60 | 2.10 | RIM2 D1 | ZO-1 D2 |  |  |
| CC(C)[C@H](NC(=O)[C@H](Cc1ccc(O)cc1)NC(=O)[C@H](Cc1ccc(O)cc1)NC(=O)[C@H](CCC(=O)O)NC(=O)[C@H](CCCCN)NC(=O)[C@H](CC(=O)O)NC(=O)[C@H](CCCCN)NC(=O)[C@H](CC(N)=O)NC(=O)[C@H](CCCCN)NC(=O)[C@H](CCCNC(=N)N)NC(=O)[C@H](CCCNC(=N)N)NC(=O)[C@H](CCCNC(=N)N)NC(=O)[C@H](CCC(N)=O)NC(=O)[C@H](CCCNC(=N)N)NC(=O)[C@H](CCCNC(=N)N)NC(=O)[C@H](CCCCN)NC(=O)[C@H](CCCCN)NC(=O)[C@H](CCCNC(=N)N)NC(=O)CNC(=O)[C@H](Cc1ccc(O)cc1)NC(=O)CCCC[C@@H]1SC[C@@H]2NC(=O)N[C@@H]21)C(=O)O [Peptide 1852] (Biotin-YGRKKRRQRRRKNKDKEYYV-OH; C-terminus assumed) |  | 2.40 | 2.60 | RIM2 D1 | ZO-1 D2 |  |  |
| [Gd+3] [Gd^3+] |  |  |  |  |  | can permit survival of neurons destined to die from prolonged OGD |  |
| CC(C)C[C@H](NC(=O)[C@H](CO)NC(=O)[C@@H](NC(=O)[C@H](CC(C)C)NC(=O)[C@H](CCCNC(=N)N)NC(=O)[C@H](CC(=O)O)NC(=O)CNC(=O)[C@H](CCCNC(=N)N)NC(=O)[C@H](C)NC(=O)[C@H](CCCNC(=N)N)NC(=O)[C@H](CCCNC(=N)N)NC(=O)[C@H](CCCNC(=N)N)NC(=O)[C@H](CCC(N)=O)NC(=O)[C@H](CCCNC(=N)N)NC(=O)[C@H](CCCNC(=N)N)NC(=O)[C@H](CCCCN)NC(=O)[C@H](CCCCN)NC(=O)[C@H](CCCNC(=N)N)NC(=O)CNC(=O)[C@H](Cc1ccc(O)cc1)NC(=O)CCCC[C@@H]1SC[C@@H]2NC(=O)N[C@@H]21)C(C)C)C(=O)O [Peptide 1843] (Biotin-YGRKKRRQRRRARGDRLVSL-OH; C-terminus assumed) |  | 1.20 | 2.20 | RIM2 D1 | ZO-1 D2 |  |  |
| YGRKKRRQRRR-STNSVRLML (YGRKKRRQRRRSTNSVRLML) [Tat-9cTRPM7, HIV-1 Tat transduction domain fused to last 9 amino acids of human TRPM7] |  |  |  |  |  |  | enhanced survival when challenged with NMDA |
